Measurements as given in patent US20060275812A1, “Assay for agonists and antagonists of ion channels and for regulators of genetic expression” (University of Pittsburgh of the Commonwealth System of …, priority 2005, published 2006).

Tested on: vTT infected 7b cells
Assay: Detection of apoptosis (DePsipher MPT; CaspACE activated caspases)
Type: cell-based
Settings: overnight capsaicin (3 μm) stimulation
Procedure: Detection of Apoptosis. The DePsipher kit (R&D systems, Minneapolis, Minn.) was used to detect the initiation of mitochondrial permeability transition (MPT) in 7b cells. Briefly, vTT or QOZ infected cells (12 hpi, 0.1 PFU/cell) were incubated with 3 μm capsaicin for one hour at 37° C. in a 5% CO2 incubator. Cells were then loaded with 1 μl DePsipher/ml in pre-warmed culture media for 15-20 min at 37° C. in a 5% CO2 incubator. Following two washes in prewarmed media, cells were immediately imaged using an inverted fluorescence microscope (Carl Zeiss Inc.). For activated caspase detection, the CaspACE FITC-VAD-FMK In-Situ Marker kit (Promega, Madison, Wis.) was used. Briefly, CaspACE FITC-VAD-FMK was added to a final concentration of 10 μM to 7b cells infected with vTT or QOZ virus (12 hpi, 0.3 PFU/cell). Cells were incubated for 20 minutes at 37° C. in a 5% CO2 incubator. Following two washes in PBS, cells were fixed for 30 minutes in 10% formalin, washed three times with PBS and imaged using an inverted fluorescence microscope (Carl Zeiss Inc.).

Q: With `COc1cc(CNC(=O)CCCC/C=C/C(C)C)ccc1O` [capsaicin] as the compound, how does the activated caspases read?
A: positive
